# What was measured:
# [1] = system: Mus musculus; assay: Activity was measured by rotarod test by intraperitoneal administration in mouse.; assay type: functional; details: ip
# [2] = system: Mus musculus; assay: Anticonvulsant activity when lethal dose of strychnine given subcutaneously in mouse; assay type: ADME, organism-based; details: in vivo, sc
# [3] = species: Mus musculus; assay: Anticonvulsant activity when maximal electroshock is induced in mouse; assay type: functional
# [4] = system: Mus musculus; assay: Anticonvulsant activity when bicuculline given subcutaneously in mouse; assay type: functional; details: sc
# [5] = system: Rattus norvegicus; assay: Activity was measured by rotarod test by peroral administration in rat; assay type: functional; details: po
smiles,measurement,setting,value
CNC1=Nc2ccc(Cl)cc2C(c2ccccc2)=[N+]([O-])C1 [CHLORDIAZEPOXIDE],ED50,[1],11 mg/kg
same,ED50,[2],7.5 mg/kg
same,ED50,[3],23 mg/kg
same,ED50,[4],4.7 mg/kg
same,ED50,[5],68.4 mg/kg
